Measurements as given in ChEMBL document CHEMBL2177037, “10'-Fluorovinblastine and 10'-Fluorovincristine: Synthesis of a Key Series of Modified Vinca Alkaloids” (ACS Med Chem Lett, 2011).
Active and inactive are the calls of the source. The rule behind the calls is not given here.

What was measured:
HCT-116 [1] = assay: Antitumor activity against human HCT116 cells xenografted in mouse assessed as mouse survival at 0.5 mg/kg; type: functional, organism-based; parameters: dose 0.5 mg/kg
HCT-116/VM46 [2] = assay: Cytotoxicity against human vinblastin-resistant HCT116/VM46 cells; type: functional, cell-based
L1210 [3] = assay: Cytotoxicity against mouse L1210 cells; type: functional, cell-based
HCT-116 [4] = assay: Cytotoxicity against human HCT116 cells; type: functional, cell-based
HCT-116/VM46 [5] = assay: Antitumor activity against human HCT116/VM46 cells xenografted in mouse assessed as mouse survival at 0.01 to 0.5 mg/kg, ip after 110 days; type: functional, organism-based
HCT-116 [6] = assay: Ratio of vinblastin IC50 to compound IC50 for human HCT116 cells; type: functional
HCT-116/VM46 [7] = assay: Ratio of vinblastin IC50 to compound IC50 for human vinblastin-resistant HCT116/VM46 cells; type: functional
L1210 [8] = assay: Ratio of vinblastin IC50 to compound IC50 for mouse L1210 cells; type: functional
HCT-116/VM46 [9] = assay: Ratio of vincristine IC50 to compound IC50 for human vincristine-resistant HCT116/VM46 cells; type: functional
HCT-116 [10] = assay: Ratio of vincristine IC50 to compound IC50 for human HCT116 cells; type: functional
L1210 [11] = assay: Ratio of vincristine IC50 to compound IC50 for mouse L1210 cells; type: functional

Row | SMILES | IC50 (HCT-116/VM46 [2]) | IC50 (L1210 [3]) | IC50 (HCT-116 [4]) | also measured
1 | CC[C@]1(O)C[C@@H]2CN(CCc3c([nH]c4ccccc34)[C@@](C(=O)OC)(c3cc4c(cc3OC)N(C)[C@H]3[C@@](O)(C(=O)OC)[C@H](OC(C)=O)[C@]5(CC)C=CCN6CC[C@]43[C@@H]65)C2)C1 [VINBLASTINE] | 600 nM |  |  | Activity (HCT-116 [1]): Active
2 | CCC1=C[C@H]2CN(CCc3c([nH]c4ccc(I)cc34)[C@@](C(=O)OC)(c3cc4c(cc3OC)N(C)[C@H]3[C@@](O)(C(=O)OC)[C@H](OC(C)=O)[C@]5(CC)C=CCN6CC[C@]43[C@@H]65)C2)C1 | 1800 nM | 620 nM | 600 nM | 
3 | CC[C@]1(O)C[C@H]2CN(CCc3c([nH]c4ccc(F)cc34)[C@@](C(=O)OC)(c3cc4c(cc3OC)N(C)[C@H]3[C@@](O)(C(=O)OC)[C@H](OC(C)=O)[C@]5(CC)C=CCN6CC[C@]43[C@@H]65)C2)C1 | 80 nM | 0.7 nM | 0.8 nM | Activity (HCT-116/VM46 [5]): Active; Ratio IC50 (HCT-116 [6]): 8; Ratio IC50 (HCT-116/VM46 [7]): 8; Ratio IC50 (L1210 [8]): 8
4 | CC[C@]1(O)C[C@H]2CN(CCc3c([nH]c4ccc(I)cc34)[C@@](C(=O)OC)(c3cc4c(cc3OC)N(C)[C@H]3[C@@](O)(C(=O)OC)[C@H](OC(C)=O)[C@]5(CC)C=CCN6CC[C@]43[C@@H]65)C2)C1 | 840 nM | 55 nM | 60 nM | 
5 | CC[C@]1(O)C[C@H]2CN(CCc3c([nH]c4ccc(Cl)cc34)[C@@](C(=O)OC)(c3cc4c(cc3OC)N(C)[C@H]3[C@@](O)(C(=O)OC)[C@H](OC(C)=O)[C@]5(CC)C=CCN6CC[C@]43[C@@H]65)C2)C1 | 720 nM | 6.2 nM | 7.6 nM | 
6 | CCC1=C[C@H]2CN(CCc3c([nH]c4c(F)cccc34)[C@@](C(=O)OC)(c3cc4c(cc3OC)N(C)[C@H]3[C@@](O)(C(=O)OC)[C@H](OC(C)=O)[C@]5(CC)C=CCN6CC[C@]43[C@@H]65)C2)C1 | 6700 nM | 650 nM | 790 nM | 
7 | CCC1=C[C@H]2CN(CCc3c([nH]c4ccc(C#N)cc34)[C@@](C(=O)OC)(c3cc4c(cc3OC)N(C)[C@H]3[C@@](O)(C(=O)OC)[C@H](OC(C)=O)[C@]5(CC)C=CCN6CC[C@]43[C@@H]65)C2)C1 | 920 nM | 65 nM | 70 nM | 
8 | CC[C@]1(O)C[C@H]2CN(CCc3c([nH]c4ccccc34)[C@@](C(=O)OC)(c3cc4c(cc3OC)N(C=O)[C@H]3[C@@](O)(C(=O)OC)[C@H](OC(C)=O)[C@]5(CC)C=CCN6CC[C@]43[C@@H]65)C2)C1 [VINCRISTINE] |  | 6 nM | 7 nM | 
9 | CCC1=C[C@H]2CN(CCc3c([nH]c4c(Cl)cccc34)[C@@](C(=O)OC)(c3cc4c(cc3OC)N(C)[C@H]3[C@@](O)(C(=O)OC)[C@H](OC(C)=O)[C@]5(CC)C=CCN6CC[C@]43[C@@H]65)C2)C1 | 7300 nM | 640 nM | 880 nM | 
10 | CC[C@]1(O)C[C@H]2CN(CCc3c([nH]c4ccc(SC)cc34)[C@@](C(=O)OC)(c3cc4c(cc3OC)N(C)[C@H]3[C@@](O)(C(=O)OC)[C@H](OC(C)=O)[C@]5(CC)C=CCN6CC[C@]43[C@@H]65)C2)C1 | 780 nM | 50 nM | 50 nM | 
11 | CCC1=C[C@H]2CN(CCc3c([nH]c4c(Br)cccc34)[C@@](C(=O)OC)(c3cc4c(cc3OC)N(C)[C@H]3[C@@](O)(C(=O)OC)[C@H](OC(C)=O)[C@]5(CC)C=CCN6CC[C@]43[C@@H]65)C2)C1 | 3900 nM | 600 nM | 740 nM | 
12 | CC[C@]1(O)C[C@H]2CN(CCc3c([nH]c4ccc(Br)cc34)[C@@](C(=O)OC)(c3cc4c(cc3OC)N(C)[C@H]3[C@@](O)(C(=O)OC)[C@H](OC(C)=O)[C@]5(CC)C=CCN6CC[C@]43[C@@H]65)C2)C1 | 270 nM | 8 nM | 8.6 nM | 
13 | CCC1=C[C@H]2CN(CCc3c([nH]c4c(I)cccc34)[C@@](C(=O)OC)(c3cc4c(cc3OC)N(C)[C@H]3[C@@](O)(C(=O)OC)[C@H](OC(C)=O)[C@]5(CC)C=CCN6CC[C@]43[C@@H]65)C2)C1 | 6200 nM | 690 nM | 870 nM | 
14 | CCC1=C[C@H]2CN(CCc3c([nH]c4ccccc34)[C@@](C(=O)OC)(c3cc4c(cc3OC)N(C)[C@H]3[C@@](O)(C(=O)OC)[C@H](OC(C)=O)[C@]5(CC)C=CCN6CC[C@]43[C@@H]65)C2)C1 | 600 nM | 65 nM | 75 nM | 
15 | CC[C@]1(O)C[C@H]2CN(CCc3c([nH]c4c(I)cccc34)[C@@](C(=O)OC)(c3cc4c(cc3OC)N(C)[C@H]3[C@@](O)(C(=O)OC)[C@H](OC(C)=O)[C@]5(CC)C=CCN6CC[C@]43[C@@H]65)C2)C1 | 910 nM | 55 nM | 80 nM | 
16 | CC[C@]1(O)C[C@H]2CN(CCc3c([nH]c4ccc(F)cc34)[C@@](C(=O)OC)(c3cc4c(cc3OC)N(C=O)[C@H]3[C@@](O)(C(=O)OC)[C@H](OC(C)=O)[C@]5(CC)C=CCN6CC[C@]43[C@@H]65)C2)C1 |  | 0.8 nM | 1.5 nM | Ratio IC50 (HCT-116/VM46 [9]): 5; Ratio IC50 (HCT-116 [10]): 5; Ratio IC50 (L1210 [11]): 5
17 | CCC1=C[C@H]2CN(CCc3c([nH]c4ccc(F)cc34)[C@@](C(=O)OC)(c3cc4c(cc3OC)N(C)[C@H]3[C@@](O)(C(=O)OC)[C@H](OC(C)=O)[C@]5(CC)C=CCN6CC[C@]43[C@@H]65)C2)C1 | 290 nM | 30 nM | 50 nM | 
18 | CCC1=C[C@H]2CN(CCc3c([nH]c4ccc(OC)cc34)[C@@](C(=O)OC)(c3cc4c(cc3OC)N(C)[C@H]3[C@@](O)(C(=O)OC)[C@H](OC(C)=O)[C@]5(CC)C=CCN6CC[C@]43[C@@H]65)C2)C1 | 5500 nM | 550 nM | 640 nM | 
19 | CC[C@]1(O)C[C@H]2CN(CCc3c([nH]c4ccc(C#N)cc34)[C@@](C(=O)OC)(c3cc4c(cc3OC)N(C)[C@H]3[C@@](O)(C(=O)OC)[C@H](OC(C)=O)[C@]5(CC)C=CCN6CC[C@]43[C@@H]65)C2)C1 | > 10000 nM | 630 nM | 620 nM | 
20 | CC[C@]1(O)C[C@H]2CN(CCc3c([nH]c4c(Br)cccc34)[C@@](C(=O)OC)(c3cc4c(cc3OC)N(C)[C@H]3[C@@](O)(C(=O)OC)[C@H](OC(C)=O)[C@]5(CC)C=CCN6CC[C@]43[C@@H]65)C2)C1 | 910 nM | 50 nM | 80 nM | 
21 | CCC1=C[C@H]2CN(CCc3c([nH]c4ccc(Cl)cc34)[C@@](C(=O)OC)(c3cc4c(cc3OC)N(C)[C@H]3[C@@](O)(C(=O)OC)[C@H](OC(C)=O)[C@]5(CC)C=CCN6CC[C@]43[C@@H]65)C2)C1 | 800 nM | 60 nM | 70 nM | 
22 | CCC1=C[C@H]2CN(CCc3c([nH]c4ccc(C)cc34)[C@@](C(=O)OC)(c3cc4c(cc3OC)N(C)[C@H]3[C@@](O)(C(=O)OC)[C@H](OC(C)=O)[C@]5(CC)C=CCN6CC[C@]43[C@@H]65)C2)C1 | 640 nM | 65 nM | 65 nM | 
23 | CC[C@]1(O)C[C@H]2CN(CCc3c([nH]c4ccc(OC)cc34)[C@@](C(=O)OC)(c3cc4c(cc3OC)N(C)[C@H]3[C@@](O)(C(=O)OC)[C@H](OC(C)=O)[C@]5(CC)C=CCN6CC[C@]43[C@@H]65)C2)C1 | > 10000 nM | 670 nM | 720 nM | 
24 | CCC1=C[C@H]2CN(CCc3c([nH]c4ccc(Br)cc34)[C@@](C(=O)OC)(c3cc4c(cc3OC)N(C)[C@H]3[C@@](O)(C(=O)OC)[C@H](OC(C)=O)[C@]5(CC)C=CCN6CC[C@]43[C@@H]65)C2)C1 | 860 nM | 65 nM | 70 nM | 
25 | CC[C@]1(O)C[C@H]2CN(CCc3c([nH]c4ccc(C)cc34)[C@@](C(=O)OC)(c3cc4c(cc3OC)N(C)[C@H]3[C@@](O)(C(=O)OC)[C@H](OC(C)=O)[C@]5(CC)C=CCN6CC[C@]43[C@@H]65)C2)C1 | 600 nM | 7.8 nM | 7.8 nM | 
26 | CCC1=C[C@H]2CN(CCc3c([nH]c4ccc(O)cc34)[C@@](C(=O)OC)(c3cc4c(cc3OC)N(C)[C@H]3[C@@](O)(C(=O)OC)[C@H](OC(C)=O)[C@]5(CC)C=CCN6CC[C@]43[C@@H]65)C2)C1 | 7200 nM | 590 nM | 500 nM | 
27 | CC[C@]1(O)C[C@H]2CN(CCc3c([nH]c4c(F)cccc34)[C@@](C(=O)OC)(c3cc4c(cc3OC)N(C)[C@H]3[C@@](O)(C(=O)OC)[C@H](OC(C)=O)[C@]5(CC)C=CCN6CC[C@]43[C@@H]65)C2)C1 | 730 nM | 50 nM | 65 nM | 
28 | CC[C@]1(O)C[C@H]2CN(CCc3c([nH]c4c(Cl)cccc34)[C@@](C(=O)OC)(c3cc4c(cc3OC)N(C)[C@H]3[C@@](O)(C(=O)OC)[C@H](OC(C)=O)[C@]5(CC)C=CCN6CC[C@]43[C@@H]65)C2)C1 | 5000 nM | 330 nM | 220 nM | 
29 | CCC1=C[C@H]2CN(CCc3c([nH]c4ccc(SC)cc34)[C@@](C(=O)OC)(c3cc4c(cc3OC)N(C)[C@H]3[C@@](O)(C(=O)OC)[C@H](OC(C)=O)[C@]5(CC)C=CCN6CC[C@]43[C@@H]65)C2)C1 | 770 nM | 60 nM | 85 nM | 
